Experimental data from patent EP0703222A1, “3-AMINOAZEPINE COMPOUND AND PHARMACEUTICAL USE THEREOF” (YOSHITOMI PHARMACEUTICAL INDUSTRIES, LTD., priority 1993, dated 1994).

Columns and labels:
CCK-B receptor = molecular target: T1, CCK-B receptor (Rattus norvegicus, UniProt P30553); assay: CCK-B receptor binding test (brain); conditions: for Ki: rat cerebral cortex membranes, 125I-CCK-8, 20°C, 30 minutes, read-out: binding affinity (Ki,nM) CCK-B; for selectivity (A/B): ratio CCK-A / CCK-B binding affinity
T1 construct: cerebral cortex from rat was prepared and suspended in a buffer; from tissue; host or cells: rat cerebral cortex membrane suspension
T1 sequence (P30553 1-452): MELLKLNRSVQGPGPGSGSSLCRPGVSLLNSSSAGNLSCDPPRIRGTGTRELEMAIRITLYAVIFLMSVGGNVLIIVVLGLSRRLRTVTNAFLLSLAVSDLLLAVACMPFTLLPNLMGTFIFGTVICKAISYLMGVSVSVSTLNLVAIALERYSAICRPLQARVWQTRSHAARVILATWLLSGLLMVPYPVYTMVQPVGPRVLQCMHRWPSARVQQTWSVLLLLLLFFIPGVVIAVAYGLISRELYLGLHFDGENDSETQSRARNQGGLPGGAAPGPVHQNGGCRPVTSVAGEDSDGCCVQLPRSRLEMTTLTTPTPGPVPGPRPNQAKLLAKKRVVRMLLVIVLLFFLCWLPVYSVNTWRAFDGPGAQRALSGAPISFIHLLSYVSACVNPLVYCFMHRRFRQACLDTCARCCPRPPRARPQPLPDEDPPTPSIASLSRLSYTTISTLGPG
Method: Experimental Example 2 : CCK-B receptor binding test (brain)
In the case of the central nervous system, cerebral cortex from rat was prepared and suspended in a buffer, pH 6.5, containing 5 mM magnesium chloride, 1 mM EGTA [ethylene glycol bis(2-aminoethylether)tetraacetic acid], 360 mM sodium chloride, 15 mM potassium chloride, 20 mM HEPES (N-2-hydroxyethylpiperazine-N'-2-ethanesulfonic acid) and 0.25 mg/ml bacitracin. For binding assay, 50 µl of a buffer (for total binding), unlabeled CCK-8 sulfate (for nonspecific binding) having a final concentration of 1 µM or a test compound (for determining inhibition of ¹²⁵I-CCK binding) and 50 µl of ¹²⁵I-CCK-8 (63-67 TBq/mmol, 40,000 - 50,000 cpm) were added to a membrane suspension (450 µl, containing 100 µg protein). The reaction mixture was incubated at 20°C for 30 minutes, filtered by suction through a glass fiber filter (Whatman GF/B), and immediately thereafter washed 3 times with ice-cooled Tris buffer (2.5 ml). The radioactive concentration on the filter was measured.
(§1) Inhibition (%) = 100 -((binding when compound added - nonspecific binding))/((total binding - nonspecific binding))× 100 [formula]

CCK-A receptor = molecular target: T2, CCK-A receptor (Rattus norvegicus, UniProt P30551); assay: CCK-A receptor binding test (pancreas); conditions: for Ki: rat pancreas membranes, 125I-CCK-8, 20°C, 30 minutes, read-out: binding affinity (Ki,nM) CCK-A; for affinity for CCK-A receptor (in words): summary of the binding results in the text
T2 construct: The whole pancreas was removed from a male rat; from tissue; host or cells: rat pancreas membrane homogenate
T2 sequence (P30551 1-444): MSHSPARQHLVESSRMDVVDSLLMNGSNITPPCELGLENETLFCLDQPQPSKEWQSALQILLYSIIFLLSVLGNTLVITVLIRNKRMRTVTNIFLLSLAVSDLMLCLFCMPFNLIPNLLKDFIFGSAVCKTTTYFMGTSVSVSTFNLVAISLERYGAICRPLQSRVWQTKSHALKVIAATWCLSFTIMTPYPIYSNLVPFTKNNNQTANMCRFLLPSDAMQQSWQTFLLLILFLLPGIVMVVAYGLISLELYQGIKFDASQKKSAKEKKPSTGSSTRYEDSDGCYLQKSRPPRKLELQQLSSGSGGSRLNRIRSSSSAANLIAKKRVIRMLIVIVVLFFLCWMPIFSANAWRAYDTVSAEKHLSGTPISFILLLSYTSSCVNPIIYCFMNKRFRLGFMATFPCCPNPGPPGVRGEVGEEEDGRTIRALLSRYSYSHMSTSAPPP
Method: Experimental Example 1 : CCK-A receptor binding test (pancreas)
The whole pancreas was removed from a male rat. The fat tissues were removed and the pancreas was homogenized (Brinkman Polytron PT20) in 50 mM Tris hydrochloric acid (pH 7.5). The homogenate was filtered through a nylon cloth (120 mesh) and centrifuged at 50,000 × g for 12 minutes. The obtained sediment was homogenized in Tris buffer as in the above and centrifuged. The sediment was suspended in a buffer for binding assay [50 mM Tris-HCl (pH 7.2) containing 5 mM magnesium chloride, 5 mM dithiothreitol, 2 mg/ml bovine serum albumin, 0.1 mg/ml bacitracin and 0.14 mg/ml trypsin inhibitor (soybean)] and used as a receptor source.
For binding assay, 50 µl of a buffer (for total binding), unlabeled CCK-8 sulfate (for nonspecific binding) having a final concentration of […] or a test compound (for determining inhibition of ¹²⁵I-CCK binding) and 50 µl of ¹²⁵I-CCK-8 (63-67 TBq/mmol, 40,000-50,000 cpm) were added to a membrane suspension (450 µl, containing 100 µg protein). The reaction mixture was incubated at 20°C for 30 minutes, filtered by suction through a glass fiber filter (Whatman GF/B), and immediately thereafter washed 3 times with ice-cooled Tris buffer (2.5 ml). The radioactive concentration on the filter was measured.
as §1

For `Cc1ccccc1NC(=O)NC1C=C(c2ccccc2)c2ccccc2N(CC(=O)c2ccccc2C)C1=O` (single isomer, unassigned; (-)) [Example 66, (-)-1-(1-(2'-methylphenacyl)-2-oxo-5-phenyl-2,3-dihydro-1H-1-benzazepin-3-yl)-3-(2-methylphenyl)urea], the Ki (CCK-B receptor) was 2.5 nM, the “selectivity (A/B)” value (CCK-B receptor) was 124 and the Ki (CCK-A receptor) was 310 nM.

In the case of `COc1ccc(NC(=O)NC2C=C(c3ccccc3)c3ccccc3N(CC(=O)c3ccccc3C)C2=O)cc1` (single isomer, unassigned; (-)) [Example 68, (-)-1-(4-methoxyphenyl)-3-(1-(2'-methylphenacyl)-2-oxo-5-phenyl-2,3-dihydro-1H-1-benzazepin-3-yl)urea], the Ki (CCK-B receptor) is reported as 1.1 nM, the “selectivity (A/B)” value (CCK-B receptor) is reported as 140 and the Ki (CCK-A receptor) is reported as 150 nM.

`CCOC(=O)CN1C(=O)C(NC(=O)Nc2cccc(OC)c2)C=C(c2ccccc2)c2ccccc21` (single isomer, unassigned; (-)) [Example 52, (-)-1-(1-ethoxycarbonylmethyl-2-oxo-5-phenyl-2,3-dihydro-1H-1-benzazepin-3-yl)-3-(3-methoxyphenyl)urea] was tested, and the Ki (CCK-B receptor) was 0.92 nM, the “selectivity (A/B)” value (CCK-B receptor) was 120 and the Ki (CCK-A receptor) was 110 nM.

`Cc1ccccc1C(=O)CN1C(=O)C(NC(=O)c2cc3ccccc3[nH]2)C=C(c2ccccc2)c2ccccc21` (single isomer, unassigned; (+)) [Example 81, (+)-N-(1-(2'-methylphenacyl)-2-oxo-5-phenyl-2,3-dihydro-1H-1-benzazepin-3-yl)-2-indole carboxamide] was tested, and the Ki (CCK-B receptor) was > 1000 nM, the “selectivity (A/B)” value (CCK-B receptor) was <0.042 and the Ki (CCK-A receptor) was 42 nM. For the same molecule, the “affinity for CCK-A receptor (in words)” value (CCK-A receptor) was “strong, selective affinity for CCK-A receptor”.

With `CCOC(=O)CN1C(=O)C(NC(=O)Nc2cccc(C)c2)C=C(c2ccccc2)c2ccccc21` (single isomer, unassigned; (-)) [Example 46, (-)-1-(1-ethoxycarbonylmethyl-2-oxo-5-phenyl-2,3-dihydro-1H-1-benzazepin-3-yl)-3-(3-methylphenyl)urea] the Ki (CCK-B receptor) was 0.87 nM, the “selectivity (A/B)” value (CCK-B receptor) was 110 and the Ki (CCK-A receptor) was 100 nM.

For `CCOC(=O)CN1C(=O)C(NC(=O)Nc2ccc(C)cc2)C=C(c2ccccc2)c2ccccc21` (single isomer, unassigned; (-)) [Example 48, (-)-1-(1-ethoxycarbonylmethyl-2-oxo-5-phenyl-2,3-dihydro-1H-1-benzazepin-3-yl)-3-(4-methylphenyl)urea], the Ki (CCK-B receptor) was 2.1 nM, the “selectivity (A/B)” value (CCK-B receptor) was 100 and the Ki (CCK-A receptor) was 210 nM.

`Cc1cccc(NC(=O)N[C@@H]2N=C(c3ccccc3)c3ccccc3N(C)C2=O)c1` [Example L-365260, (R)-N-(2,3-dihydro-1-methyl-2-oxo-5-phenyl-1H-1,4-benzodiazepin-3-yl)-N'-(3-methylphenyl)urea, reference compound] was tested, and the Ki (CCK-B receptor) was 19 nM, the “selectivity (A/B)” value (CCK-B receptor) was 21 and the Ki (CCK-A receptor) was 390 nM.

In the case of `Cc1ccc(NC(=O)NC2C=C(c3ccccc3)c3ccccc3N(CC(=O)c3ccccc3C)C2=O)cc1` (single isomer, unassigned; (-)) [Example 64, (-)-1-(1-(2'-methylphenacyl)-2-oxo-5-phenyl-2,3-dihydro-1H-1-benzazepin-3-yl)-3-(4-methylphenyl)urea], the Ki (CCK-B receptor) is reported as 1.1 nM, the “selectivity (A/B)” value (CCK-B receptor) is reported as 180 and the Ki (CCK-A receptor) is reported as 200 nM.

For `CN1C(=O)C(NC(=O)c2cc3ccccc3[nH]2)C=C(c2ccccc2)c2ccccc21` (single isomer, unassigned; (+)) [Example 36, (+)-N-(1-methyl-2-oxo-5-phenyl-2,3-dihydro-1H-1-benzazepin-3-yl)-2-indolecarboxamide], the Ki (CCK-B receptor) was > 1000 nM, the “selectivity (A/B)” value (CCK-B receptor) was <0.0047 and the Ki (CCK-A receptor) was 4.7 nM. The “affinity for CCK-A receptor (in words)” value (CCK-A receptor) was “strong, selective affinity for CCK-A receptor”.

For `Cc1ccccc1C(=O)CN1C(=O)C(NC(=O)Nc2ccccc2Cl)C=C(c2ccccc2)c2ccccc21` (single isomer, unassigned; (-)) [Example 74, (-)-1-(2-chlorophenyl)-3-(1-(2'-methylphenacyl)-2-oxo-5-phenyl-2,3-dihydro-1H-1-benzazepin-3-yl)urea], the Ki (CCK-B receptor) was 2.4 nM, the “selectivity (A/B)” value (CCK-B receptor) was 120 and the Ki (CCK-A receptor) was 290 nM.
